In patent US7534915B2, “Non-symmetrical gelling agent” (Applied Nanosystems B.V., priority 2003, dated 2009):
One block for each compound: values may come before it.

Legend:
α-chymotrypsin = assay: α-chymotrypsin-induced cleavage followed by fluorescence detection of released 6-AQ; format: biochemical; conditions: for Km / Vmax: from Lineweaver-Burke and Eadie-Hofstee plots, for 12 only points where V still increased; for Cleavage (6-AQ formation) by α-chymotrypsin: substrate 7.54 mM (12 as gel, 39 as solution), α-chymotrypsin 40 mM as printed
Source text: In order to investigate the enzymatic cleavage of a gelator-drug conjugate, we selected the enzyme α-chymotrypsin, which is capable of cleaving amide bonds at the C═O terminus of L-phenylalanine-based substrates like compound 12 (CHex(AmPhe-6AQ)(AmEtOEtOH)2), resulting here in the release of the fluorogenic “model drug” 6-aminoquinoline (6-AQ). This system allows easy monitoring of the cleavage kinetics owing to the fact that the excitation and emission maxima for the amide and amino form of this compound are adequately separated (amide form: λex=315 nm, λem=370 nm, amine form: λex=339 nm, λem=550 nm).
Gelator 12 was dissolved in a small amount of DMSO (100 μL), whereas α-chymotrypsin was dissolved in a buffer solution (Tris-HCl, 0.1 M, pH 7.75, 900 μL). […] In order to determine the effect of gelation on the enzymatic cleavage, the water-soluble, non-gelating, model substrate 39 was synthesized with a structure similar to that of gelator 12.
Fluorescence experiments were carried out in which the α-chymotrypsin-induced cleavage of compounds 12 and 39 was followed through the detection of 6-AQ.
Legend to FIG. 2 (from bottom to top): Trace a: gel of gelator 12 (0.5 wt %=7.54 mM); trace b: gel of gelator 12 (0.5 wt %=7.54 mM)+α-chymotrypsin ([…]); trace c: gel of gelator 12 (0.5 wt %=7.54 mM)+compound 39 (7.54 mM)+α-chymotrypsin (40 μM); trace d: solution of compound 39 (7.54 mM)+α-chymotrypsin (40 mM)
Performing the cleavage experiments for both 12 and 39 at different substrate concentrations and plotting the initial rates as a function of the substrate concentration (i.e., 12 or 39) results in the points plotted in FIG. 3. […] The initial rates for gelator 12, however, increase up to a certain point, after which they remain the same, even at much higher concentrations. From the corresponding Lineweaver-Burke and Eadie-Hofstee plots, values for Vmax and Km could be obtained for both compounds. […] From these points, the following values were calculated. […] Using these values for Vmax and Km, the theoretical curves could be plotted for both compounds. For compound 39, the experimentally determined points fitted very well on the curve. […] Below this concentration, a sample of 12 exists as a solution. So, even though the molecules in a gel are in constant equilibrium with those in solution and the overall gelator concentration may increase well above the CGC (thus bringing about gelation), the concentration of gelator in solution can never exceed the CGC. The fact that the initial rate for 12 no longer increases once the substrate (i.e., gelator) concentration exceeds the CGC, proves that only the gelator molecules in solution can be cleaved by the enzyme.

[1] = Gel test (vial inversion); format: physicochemical
Experimental: A weighed amount of solid was dissolved in 0.5 or 1 ml of the solvent in a closed 2.0 ml vial using a heating gun or a heating block and subsequently slowly cooled to room temperature by standing in the air. Gelation was determined by turning the vial upside down and gentle shaking. If no flow of the mass was observed, the mass was defined to be a gel. Alternatively, a weighed amount of solid was dissolved in 1 mL of solvent by the addition of acid or base. The subsequent addition of base or acid then gave gelation. Alternatively, a weighed amount of solid was dissolved in a small amount of solvent. The subsequent addition of a large amount of non-solvent then gave gelation. Alternatively, the solution of gelator/thickener was added to the non-solvent, resulting in gelation. Alternatively, a weighed amount of solid was mixed with 1 mL of solvent by sonication. After stopping the sonication, gelation occurred. Alternatively a weighed amount of solid was mixed with 1 mL of solvent by brief vortexing after which gelation occurred. Alternatively a weighed amount of solid was mixed with 1 mL of solvent after which gelation occurred.

[2] = Cryo-TEM and small angle x-ray diffraction of hydrogel fibers; format: physicochemical
Experimental: Cryo-transmission Electron Microscopy Measurements
A gel was prepared following one of the procedures described above. A small amount of the gel was carefully deposited on a bare copper grid, using a spatula. The excess solution was blotted with a filter paper, leaving a thin sample film. The grid was subsequently plunged into liquid ethane for vitrification. The vitrified specimens were transferred to a Gatan model 626 cryostage and observed in a Philips CM 120 electron microscope operating at 120 kV. The images were recorded under low-dose conditions at about −170° C. The samples were all prepared in duplo.
Presumably, the lack of (C3-)symmetry prevents the aggregation of the fibers into large bundles from taking place, and leads to the highly uniform and very low fiber diameter, the latter in turn leading to clear gel.
The left-side image is a low magnification, the right-side image a high magnification (white bar at the upper left-hand quarter in the right-side image corresponds to 4.5 nm). […] The high uniformity of the fiber thicknesses can be clearly observed in the close-up image on the right.

[3] = TEM particle size of a compound of interest included in gels of gelator 12; format: physicochemical; conditions: for Crystal size, reference without gelator: DMSO/H2O 100 μL/900 μL
Experimental: Transmission Electron Microscopy Measurements
A gel was prepared following one of the procedures described above. A small amount of the gel was carefully deposited on a carbon-coated copper grid, using a spatula. The excess solution was blotted with a filter paper, leaving a thin sample film. The samples were examined using a JEOL 1200EX (80-100 kV) and pictures were taken of representative parts. The samples were all prepared in duplo.
To a solution containing 4 mg (6.0×10^−3 mmol) of gelator 12 (CHex(AmPhe-6AQ)(AmEtOEtOH)2) and 1.22 mg (6.0×10^−3 mmol) of pyrene in 100 μL of DMSO, 900 μL of distilled water were quickly added.
To determine the stability in time of pyrene particles in a gel, samples were prepared as described in the previous paragraph and examined with TEM after 7 days, 18 days, 1 month and 2 months. As reference, samples containing only pyrene in DMSO/H2O (100 μL/900 μL) were also prepared. Moreover, to determine the effect of the gelator in solution, i.e., not in the gel, samples containing 4 mg (6.0×10^−3 mmol) of gelator 12 (CHex(AmPhe-6AQ)(AmEtOEtOH)2), 1.22 mg (6.0×10^−3 mmol) of pyrene, 100 μL of DMSO and 900 μL of 1N HCl were prepared. […] All samples were kept at room temperature, in the dark.
To a solution containing 1.96 mg (2.9×10^−3 mmol) of gelator 12 (CHex(AmPhe-6AQ)(AmEtOEtOH)2) and 1.0 mg (2.9×10^−3 mmol) of danazol in 50 μL of DMSO, 950 μL of distilled water were quickly added. […] In a reference sample consisting only of danazol in 100 μL of DMSO and 900 μL of distilled water, rod-shaped danazol particles are 0.5-10 μm wide and 15-53 μm long. […]

- Km (α-chymotrypsin): 1.8 mM
- Cleavage (6-AQ formation) in the absence of α-chymotrypsin (α-chymotrypsin; gel 0.5 wt % = 7.54 mM, fluorescence at 550 nm): no cleavage
- Gel test ([1]; 0.3 mg/mL in H2O or PBS): clear gel
- Gel test ([1]; 0.5 mg/mL in H2O/DMSO (19:1)): clear gel
- Gel test ([1]; 0.6 mg/mL in H2O/EtOH (19:1)): clear gel
- Gel formation ([1]; 4 mg with pyrene in DMSO 100 μL + 1N HCl 900 μL): does not gelate
- Gel test ([1]; 25 mg/ml in EtOH): turbid gel
- Gel formation ([1]; DMSO 100 μL + α-chymotrypsin in Tris-HCl 0.1 M pH 7.75 900 μL, rapid addition): clear, homogeneous gel
- Critical gelator concentration (CGC) ([1]; H2O:DMSO=9:1): 1.5 mM
- Gel fiber thickness [2]: about 4.5 nm
SMILES: O=C(NCCOCCO)[C@@H]1C[C@H](C(=O)NCCOCCO)C[C@H](C(=O)N[C@@H](Cc2ccccc2)C(=O)Nc2ccc3ncccc3c2)C1 [Compound 12, CHex(AmPhe-6AQ)(AmEtOEtOH)2]
- Vmax (α-chymotrypsin): 4.1 µmol/min
- experimentally determined Vmax (α-chymotrypsin; plateau of initial rate above the CGC): 1.8 µmol/min
- Cleavage (6-AQ formation) by α-chymotrypsin (α-chymotrypsin): minor cleavage

SMILES: NC(=O)CC[C@H](NC(=O)[C@@H]1C[C@H](C(=O)O)C[C@H](C(=O)N[C@@H](CCC(N)=O)C(=O)Nc2ccc3ccccc3c2)C1)C(=O)Nc1ccc2ccccc2c1 [Compound 38, CHex(AmGlnAmβNA)2(COOH)]
- Gel test ([1]; H2O, concentration not given): gel

- Km (α-chymotrypsin): 4.9 mM
- Solubility in water [1]: water-soluble
- Gelation behaviour ([1]; water): non-gelating
SMILES: O=C(O)CCCC(=O)N[C@@H](Cc1ccccc1)C(=O)Nc1ccc2ncccc2c1 [Compound 39, reference compound]
- Vmax (α-chymotrypsin): 22.3 µmol/min
- Cleavage (6-AQ formation) by α-chymotrypsin (α-chymotrypsin): more readily cleaved

- Length of rod-shaped particles, reference without gelator ([3]; DMSO 100 μL + water 900 μL): 15-53 μm
- Width of rod-shaped particles, reference without gelator ([3]; DMSO 100 μL + water 900 μL): 0.5-10 μm
- Presence of rod-shaped particles ([3]; freeze-dried gel of 12, 5:1): no rod-shaped particles were present
- Length of rod-shaped particles in gel ([3]; gel of 12, 1:1, some particles): 9 μm
- Width of rod-shaped particles in gel ([3]; gel of 12, 1:1, some particles): 0.7 μm
- Size of some particles in gel ([3]; gel of 12, 2:1): 2 μm
- Size of very few particles in gel ([3]; gel of 12, 2:1): 10 μm
- Presence of rod-shaped particles ([3]; gel of 12, 5:1): no rod-shaped particles are present
- Size of some particles in gel ([3]; gel of 12, 5:1): 400 nm
- Average particle size in gel ([3]; gel of 12, gelator:danazol 1:1, DMSO/water 50 μL/950 μL): 140-700 nm
- Average particle size in gel ([3]; gel of 12, gelator:danazol 2:1): 28 nm
- Average particle size in gel ([3]; gel of 12, gelator:danazol 5:1): 14 nm
SMILES: C#C[C@]1(O)CC[C@H]2[C@@H]3CCC4=Cc5oncc5C[C@]4(C)[C@H]3CC[C@@]21C [danazol]
- Presence of rod-shaped particles ([3]; gel of 12, 2:1): no rod-shaped danazol particles are present

SMILES: c1cc2ccc3cccc4ccc(c1)c2c34 [pyrene]
- Crystal size, reference without gelator ([3]; after 2 months): 2-12 μm
- Crystal size, reference without gelator ([3]; after 7 days, 18 days or 1 month): 0.4-9 μm
- Crystal size in gel ([3]; gel of 12, 1:1, DMSO/H2O, after 1 month): ~150 nm
- Particle size in gel ([3]; gel of 12, 1:1, DMSO/H2O, after 7 days, room temperature, dark): 37-185 nm
- Particle size in gel ([3]; gel of 12, 1:1, DMSO/H2O, after 18 days): 30-190 nm
- Crystal size, gelator in solution ([3]; with 12 1:1 in DMSO/1N HCl 100 μL/900 μL (not gelled), after 7 days): 0.2-3 μm
- Size of larger crystals, gelator in solution ([3]; with 12 1:1 in DMSO/1N HCl (not gelled), after 1 month): 6 μm
